Measurements reported in patent US20240066027A1 (DOMAIN THERAPEUTICS, priority 2020, published 2024).
Counter-ions that a name gives are not always drawn.

target: T1, human PAR-2 (hPAR-2) receptor expressed in HEK-293 T cells in an endogenous manner (Homo sapiens, UniProt P55085); test: In vitro human PAR-2 functional antagonist activity using calcium assays (Fluo4AM, FLIPR Tetra); format: cell-based; settings: HEK-293 T cells stimulated by an EC80 of the 2-Furoyl-LIGRLO-NH2 peptide after 10 min incubation with compound; 20 concentrations, duplicate, two independent experiments
T1 construct: human PAR-2 (hPAR-2) receptor expressed in HEK-293 T cells in an endogenous manner; endogenous in cells; host or cells: HEK-293 T cells
T1 sequence (P55085 26-397): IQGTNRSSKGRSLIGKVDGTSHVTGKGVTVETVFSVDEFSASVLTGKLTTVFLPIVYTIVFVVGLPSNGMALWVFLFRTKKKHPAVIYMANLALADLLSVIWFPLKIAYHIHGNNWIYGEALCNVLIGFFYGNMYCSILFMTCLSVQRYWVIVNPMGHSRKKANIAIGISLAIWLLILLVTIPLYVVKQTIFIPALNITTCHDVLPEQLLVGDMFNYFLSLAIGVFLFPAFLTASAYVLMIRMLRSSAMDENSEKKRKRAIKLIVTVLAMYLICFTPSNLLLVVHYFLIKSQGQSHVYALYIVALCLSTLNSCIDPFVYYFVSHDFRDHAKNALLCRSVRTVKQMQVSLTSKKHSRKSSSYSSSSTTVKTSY
Protocol: In vitro human PAR-2 functional antagonist activity using calcium assays
Examples of the present invention were tested successively for their agonist and antagonist activities on human PAR-2 (hPAR-2) receptor expressed in HEK-293 T cells in an endogenous manner. Compounds exert agonist activity if, by themselves in absence of the 2-Furoyl-LIGRLO-NH2 peptide (selective hPAR-2 agonist), they activate PAR-2; they exert antagonist activity if they decrease the action of the 2-Furoyl-LIGRLO-NH2 peptide on the receptor. The assay used to determine compound activity is based on calcium measurement.
Cell Culture: HEK-293 T cells were maintained in Dulbecco's Modified Eagle's Medium supplemented with 10% Foetal Calf Serum, 1% Penicillin/Streptomycin at 37° C./5% CO2. Flasks for tests (F75) are seeded with 6e+06 cells 24 h before the experiment at 37° C./5% CO2.
Calcium assay: Receptor activity was detected by changes in intracellular calcium measured using the fluorescent Ca^2+ sensitive dye, Fluo4AM (Molecular Probes).
The day of the assay, medium was replaced by assay buffer (HBSS 1× (Gibco 14175-053), Hepes 20 mM, MgSO4-7H2O 1 mM, Na2CO3 3.3 mM, CaCl2-2H2O 1.3 mM, 0.5% BSA, Probenecid 2.5 mM, 0.1 mg/mL Pluronic Acid) and complemented with 1 μM Fluo4AM and cells were incubated during 1:30 h at 37° C.
Cells were then detached, resuspended in assay buffer and seeded in 384 wells, transparent-flat bottom black walled plates (2e+04 cells per well). Plates were incubated at +22° C. for 20 min. Compounds stock solutions were prepared in 100% DMSO and dilutions in test buffer were carried out in polypropylene plates with a digital dispenser (D300e, Tecan). Compounds were added to the cells and intracellular Ca^2+ measurements were collected at the same time on FLIPR Tetra® (Molecular Devices) with specific filters (Exc: 470-495 nm/Em: 515-575 nm).
Agonist and antagonist activities of compounds were consecutively evaluated on the same cell plate. Agonist activity was first measured after 10 min incubation with the compound alone. Then, cells were stimulated by an EC80 of the 2-Furoyl-LIGRLO-NH2 peptide and fluorescence was recorded for an additional 5 min. EC80 of the 2-Furoyl-LIGRLO-NH2 peptide was the concentration giving 80% of the maximal 2-Furoyl-LIGRLO-NH2 response. Agonist activities are evaluated in comparison to basal signals evoked by assay buffer or maximal 2-Furoyl-LIGRLO-NH2 response. […] Antagonist activities are evaluated in comparison to basal signals evoked by assay buffer or EC80 of 2-Furoyl-LIGRLO-NH2 alone.

Row | Structure (SMILES) | IC50 [nM]
1 | COC(=O)c1c(C)cc(N2CCN(C(=O)c3ccc4c(n3)c(C(C)(C)C)nn4-c3ccc(Cl)c(F)c3)C(C)(C)C2)nc1C [Example 58, methyl 6-(4-(3-(tert-butyl)-1-(4-chloro-3-fluorophenyl)-1H-pyrazolo[4,3-b]pyridine-5-carbonyl)-3,3-dimethylpiperazin-1-yl)-2,4-dimethylnicotinate] | > 10000
2 | COC1CC(n2cc(-c3ccc(Cl)c(F)c3)c3ccc(C(=O)N4CCNC(=O)C4(C)C)nc32)C1 (stereo not drawn) [Example 28, 4-(3-(4-chloro-3-fluorophenyl)-1-(3-methoxycyclobutyl)-1H-pyrrolo[2,3-b]pyridine-6-carbonyl)-3,3-dimethylpiperazin-2-one] | < 20
3 | Cc1cc(NC2CCN(C(=O)c3ccc4c(-c5ccc(Cl)c(F)c5)cn(C(C)(C)C)c4n3)CC2)nc(C)c1C(=O)O [Example 100, 6-((1-(1-(tert-butyl)-3-(4-chloro-3-fluorophenyl)-1H-pyrrolo[2,3-b]pyridine-6-carbonyl)piperidin-4-yl)amino)-2,4-dimethylnicotinic acid] | 20 to 10000
4 | CN(C)C(=O)CN1CCN(C(=O)c2ccc3c(-c4ccc(Cl)c(F)c4)cn(C(C)(C)C)c3n2)C(C)(C)C1=O [Example 7, 2-(4-(1-(tert-butyl)-3-(4-chloro-3-fluorophenyl)-1H-pyrrolo[2,3-b]pyridine-6-carbonyl)-3,3-dimethyl-2-oxopiperazin-1-yl)-N,N-dimethylacetamide] | < 20
5 | CC(C)Cc1nn(-c2ccc(Cl)c(F)c2)c2ccc(C(=O)N3CCNC(=O)C3)nc12 [Example 88, 4-(1-(4-chloro-3-fluorophenyl)-3-isobutyl-1H-pyrazolo[4,3-b]pyridine-5-carbonyl)piperazin-2-one] | > 10000
6 | COc1ccc(-c2cn(CC(C)C)c3nc(C(=O)N4CCNC(=O)C4(C)C)ccc23)cn1 [Example 105, 4-(1-isobutyl-3-(6-methoxypyridin-3-yl)-1H-pyrrolo[2,3-b]pyridine-6-carbonyl)-3,3-dimethylpiperazin-2-one] | 20 to 10000
7 | CC(C)(C)c1nn(-c2ccc(Cl)c(F)c2)c2ccc(C(=O)N3CCNC(=O)C3(C)C)nc12 [Example 75] | 20 to 10000
8 | CC1(C)C(=O)N(CC(=O)N2CCOCC2)CCN1C(=O)c1ccc2c(-c3ccc(Cl)c(F)c3)cn(C(C)(C)C)c2n1 [Example 8, 4-(1-(tert-butyl)-3-(4-chloro-3-fluorophenyl)-1H-pyrrolo[2,3-b]pyridine-6-carbonyl)-3,3-dimethyl-1-(2-morpholino-2-oxoethyl)piperazin-2-one] | < 20

Continued, values first:

Row | IC50 [nM] | Structure (SMILES)
9 | < 20 | CC(C)(C)n1cc(-c2ccc(Cl)c(F)c2)c2ccc(C(=O)N3C[C@@H]4[C@@H](CC(=O)O)[C@@H]4C3)nc21 [Example 124, 2-((1R,5S,6s)-3-(1-(tert-butyl)-3-(4-chloro-3-fluorophenyl)-1H-pyrrolo[2,3-b]pyridine-6-carbonyl)-3-azabicyclo[3.1.0]hexan-6-yl)acetic acid]
10 | < 20 | Cc1cccc(Cn2cc(-c3ccc(Cl)c(F)c3)c3ccc(C(=O)N4CCN(c5cc(C)c(C(=O)O)c(C)n5)CC4(C)C)nc32)n1 [Example 192, 6-(4-(3-(4-chloro-3-fluorophenyl)-1-((6-methylpyridin-2-yl)methyl)-1H-pyrrolo[2,3-b]pyridine-6-carbonyl)-3,3-dimethylpiperazin-1-yl)-2,4-dimethylnicotinic acid hydrochloride]
11 | 20 to 10000 | COCC1CN(C(=O)c2ccc3c(-c4ccc(Cl)c(F)c4)cn(C(C)(C)C)c3n2)CCN1c1cc(C)c(C(=O)O)c(C)n1 (stereo not drawn) [Example 132, 6-(4-(1-(tert-butyl)-3-(4-chloro-3-fluorophenyl)-1H-pyrrolo[2,3-b]pyridine-6-carbonyl)-2-(methoxymethyl)piperazin-1-yl)-2,4-dimethyinicotinic acid]
12 | < 20 | Cc1cc(N2CCN(C(=O)c3ccc4c(-c5ccc(Cl)c(F)c5)cn(CC5(C)COC5)c4n3)C(C)(C)C2)nc(C)c1C(=O)O [Example 181, 6-(4-(3-(4-chloro-3-fluorophenyl)-1-((3-methyloxetan-3-yl)methyl)-1H-pyrrolo[2,3-b]pyridine-6-carbonyl)-3,3-dimethylpiperazin-1-yl)-2,4-dimethylnicotinic acid]
13 | < 20 | CC[C@@H](C)n1cc(-c2ccc(Cl)c(F)c2)c2ccc(C(=O)N3CCN(c4cc(C)c(C(=O)O)c(C)n4)CC3(C)C)nc21 [Example 165, (R)-6-(4-(1-(sec-butyl)-3-(4-chloro-3-fluorophenyl)-1H-pyrrolo[2,3-b]pyridine-6-carbonyl)-3,3-dimethylpiperazin-1-yl)-2,4-dimethylnicotinic acid]
14 | 20 to 10000 | Cc1cc(N2CCN(C(=O)c3ccc4c(-c5ccc(Cl)c(F)c5)cn(C(C)(C)C)c4n3)[C@@H](C)C2)nc(C)c1C(=O)O [Example 179, (S)-6-(4-(1-(tert-butyl)-3-(4-chloro-3-fluorophenyl)-1H-pyrrolo[2,3-b]pyridine-6-carbonyl)-3-methylpiperazin-1-yl)-2,4-dimethyinicotinic acid]
15 | 20 to 10000 | Cc1cc(N2CCCN(C(=O)c3ccc4c(-c5ccc(Cl)c(F)c5)cn(C(C)(C)C)c4n3)CC2)nc(C)c1C(=O)O [Example 127, 6-(4-(1-(tert-butyl)-3-(4-chloro-3-fluorophenyl)-1H-pyrrolo[2,3-b]pyridine-6-carbonyl)-1,4-diazepan-1-yl)-2,4-dimethylnicotinic acid]
16 | < 20 | Cc1cc(N2CCN(C(=O)c3ccc4c(-c5ccc(Cl)c(F)c5)cn(C(C)(C)C)c4n3)C(C)(C)C2)cc(C)c1C(=O)O [Example 210, 4-(4-(1-(tert-butyl)-3-(4-chloro-3-fluorophenyl)-1H-pyrrolo[2,3-b]pyridine-6-carbonyl)-3,3-dimethylpiperazin-1-yl)-2,6-dimethylbenzoic acid]
17 | 20 to 10000 | CC(C)Cc1nn(-c2ccc(Cl)c(F)c2)c2ccc(C(=O)N3CCNC(=O)C3(C)C)cc12 [Example 228, 4-(1-(4-chloro-3-fluorophenyl)-3-isobutyl-1H-indazole-5-carbonyl)-3,3-dimethylpiperazin-2-one]
18 | 20 to 10000 | Cc1cc(N2CCN(C(=O)c3ccc4c(-c5ccc(Cl)c(F)c5)cn(CC(C)(C)O)c4n3)C(C)(C)C2)nc(C)c1C(=O)O [Example 180, 6-(4-(3-(4-chloro-3-fluorophenyl)-1-(2-hydroxy-2-methylpropyl)-1H-pyrrolo[2,3-b]pyridine-6-carbonyl)-3,3-dimethylpiperazin-1-yl)-2,4-dimethylnicotinic acid]
19 | < 20 | CC1(C)CN(c2ccc(C(N)=O)cn2)CCN1C(=O)c1ccc2c(-c3ccc(Cl)c(F)c3)cn(C(C)(C)C)c2n1 [Example 138, 6-(4-(1-(tert-butyl)-3-(4-chloro-3-fluorophenyl)-1H-pyrrolo[2,3-b]pyridine-6-carbonyl)-3,3-dimethylpiperazin-1-yl)nicotinamide]
20 | < 20 | CC1(C)CN(C(=O)CCCCCCC(=O)O)CCN1C(=O)c1ccc2c(-c3ccc(Cl)c(F)c3)cn(C(C)(C)C)c2n1 [Example 215, 8-(4-(1-(tert-butyl)-3-(4-chloro-3-fluorophenyl)-1H-pyrrolo[2,3-b]pyridine-6-carbonyl)-3,3-dimethylpiperazin-1-yl)-8-oxooctanoic acid]
21 | 20 to 10000 | Cc1cc(N(C)C2CCN(C(=O)c3ccc4c(-c5ccc(Cl)c(F)c5)cn(C(C)(C)C)c4n3)CC2C)nc(C)c1C(=O)O (mixture of isomers) [Example 199, 6-((1-(1-(tert-butyl)-3-(4-chloro-3-fluorophenyl)-1H-pyrrolo[2,3-b]pyridine-6-carbonyl)-3-methylpiperidin-4-yl)(methyl)amino)-2,4-dimethylnicotinic acid]
